Measurements from PMC12486805, “Preclinical evaluation of tridecaptin M: in vitro and in vivo efficacy against colistin-resistant Gram-negative bacterial pathogens and pharmacokinetics” (Antimicrobial Agents and Chemotherapy, 2025).
Marks after values point to notes of the source that are not given here. Where a SMILES comes first, the peptide text is derived from it. [ ]: non-standard residue; d: D form. The star is where a group is joined. d(aIle) = CC[C@H](C)[C@@H](N)C(=O)O; X1 = CC[C@H](C)CCCCC(=O)*; dDab = NCC[C@@H](N)C(=O)O; Dab = NCC[C@H](N)C(=O)O

Experiments:
CYP1A2 = target: T1, CYP1A2 (Homo sapiens, UniProt P05177); assay: biochemical; type: biochemical
T1 sequence (P05177 1-516): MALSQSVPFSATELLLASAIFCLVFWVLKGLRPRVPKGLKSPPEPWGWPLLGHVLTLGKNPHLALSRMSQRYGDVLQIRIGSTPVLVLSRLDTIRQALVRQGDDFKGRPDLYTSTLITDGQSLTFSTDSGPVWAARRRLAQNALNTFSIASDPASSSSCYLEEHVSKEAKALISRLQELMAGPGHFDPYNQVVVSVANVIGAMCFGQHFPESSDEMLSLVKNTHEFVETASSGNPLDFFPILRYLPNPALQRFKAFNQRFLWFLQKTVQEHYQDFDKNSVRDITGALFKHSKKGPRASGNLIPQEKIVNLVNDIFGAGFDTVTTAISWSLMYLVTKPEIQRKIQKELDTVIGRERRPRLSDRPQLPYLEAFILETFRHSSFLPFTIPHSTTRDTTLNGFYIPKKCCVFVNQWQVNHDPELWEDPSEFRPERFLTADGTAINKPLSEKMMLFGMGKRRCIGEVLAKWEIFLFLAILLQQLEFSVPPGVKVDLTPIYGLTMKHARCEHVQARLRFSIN
Experimental: The CYP inhibition assay was performed for test/control inhibitor items in duplicates using a 96-well fluorescence plate. An example of the preparation of CYP inhibition is given below in Table 8.
The plate with CYP master premix with test/control was incubated to allow the test/control samples to interact with CYP enzyme for 10 ± 1 min at 25°C under shaking conditions (400 rpm) using Thermomixer. The assay was initiated by adding 10 µL of a substrate and NADP^+ mixture to all wells, including a vehicle control and an assay blank. […] After incubation, the reaction was quenched by adding 50 µL of stop reagent (0.5 M Tris base) to each well.

hERG channel = target: T2, hERG channel (Homo sapiens, UniProt Q12809); assay: hERG channel inhibition, patch clamp on HEK293 cells expressing hERG; type: cell-based
T2 construct: expressed in transfected cells; host or cells: HEK293
T2 sequence (Q12809 whole entry): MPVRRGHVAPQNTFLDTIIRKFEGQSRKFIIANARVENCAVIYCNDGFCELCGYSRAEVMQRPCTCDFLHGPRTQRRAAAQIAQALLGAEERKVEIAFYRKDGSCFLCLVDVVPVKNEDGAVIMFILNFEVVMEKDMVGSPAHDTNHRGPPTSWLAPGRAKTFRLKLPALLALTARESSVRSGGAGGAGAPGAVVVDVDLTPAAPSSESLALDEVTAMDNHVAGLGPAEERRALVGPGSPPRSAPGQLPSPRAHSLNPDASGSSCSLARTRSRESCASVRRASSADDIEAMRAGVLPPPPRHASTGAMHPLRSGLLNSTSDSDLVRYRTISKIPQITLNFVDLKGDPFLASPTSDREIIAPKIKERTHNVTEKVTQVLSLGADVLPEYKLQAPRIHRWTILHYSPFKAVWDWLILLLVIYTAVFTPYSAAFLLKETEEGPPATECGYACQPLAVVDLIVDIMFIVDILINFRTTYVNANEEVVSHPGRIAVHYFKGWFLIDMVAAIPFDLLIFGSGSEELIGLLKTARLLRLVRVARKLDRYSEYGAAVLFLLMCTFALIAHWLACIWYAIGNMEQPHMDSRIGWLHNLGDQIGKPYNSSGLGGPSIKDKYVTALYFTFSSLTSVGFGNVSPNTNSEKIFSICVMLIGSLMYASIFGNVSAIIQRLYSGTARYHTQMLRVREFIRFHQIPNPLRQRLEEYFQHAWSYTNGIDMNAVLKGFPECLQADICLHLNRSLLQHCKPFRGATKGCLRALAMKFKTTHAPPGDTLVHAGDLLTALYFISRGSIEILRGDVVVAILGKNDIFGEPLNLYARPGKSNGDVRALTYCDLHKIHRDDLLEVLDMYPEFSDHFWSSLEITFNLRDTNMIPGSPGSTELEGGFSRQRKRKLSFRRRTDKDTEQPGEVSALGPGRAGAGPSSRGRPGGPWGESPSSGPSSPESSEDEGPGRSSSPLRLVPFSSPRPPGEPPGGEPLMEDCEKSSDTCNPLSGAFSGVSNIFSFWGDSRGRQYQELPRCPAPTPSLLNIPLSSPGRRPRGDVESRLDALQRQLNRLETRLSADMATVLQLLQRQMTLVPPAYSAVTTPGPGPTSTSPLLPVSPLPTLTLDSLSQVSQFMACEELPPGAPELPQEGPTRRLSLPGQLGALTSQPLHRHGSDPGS
Experimental: The experiment starts upon reaching a resistance of 2-3.5 MOhm. A 5 µL cell suspension is added after generating a suction pulse to capture a cell, increasing resistance to 5 MOhm, and triggering the sealing step. […] A hERG protocol measures ion current every 10 s with voltage steps: holding at −80 mV, depolarizing to +40 mV, and repolarizing to −40 mV. Stable current is achieved in ~2 min. […]

[1] = Intravenous acute toxicity in mice; type: in vivo, Balb/c mice
Experimental: In total, 8–10 week old female Balb/c mice (n = 3) were administered tridecaptin M starting at 15 mg/kg, 25 mg/kg, 50 mg/kg, and 100 mg/kg. […] In this study, we administered 18 mg/kg of colistin to mice intravenously. […] Later, in the second set, intermediate concentrations of 20 mg/kg, 25 mg/kg, 30 mg/kg, 35 mg/kg, and 40 mg/kg doses were also administered to n = 4 mice. In these groups, blood was collected at 24 h post administration or immediately after visible movement stopped (40 mg/kg group), serum was separated and pooled together for each group n = 4, and biochemical serum tests were conducted.

in vitro = conditions: rat, microsomes
Experimental: For without cofactors, 20 µL of PBS was added instead of pre-incubated cofactors. […] At each specified time, a 100 µL sample was taken, processed through a sample extraction procedure, and submitted for LC-MS/MS analysis ([35]). Half-life (t1/2) of test/control items was determined using the following equation
where, elimination rate constant (k) = −(slope of linear regression curve).

[2] = remark: listed apart in the source
Experimental: Acute toxicity was performed on Balb/c female mice, 8 weeks old. This study was adopted and modified from a study described previously ([39]). Initial screening was done with 100 mg/kg, 200 mg/kg, 400 mg/kg, and 600 mg/kg doses of tridecaptin M and vehicle control (100% DMSO). […] Eight mice were taken, four in each group ([…]), one group was administered vehicle control (DMSO), and the other group was administered 600 mg/kg of tridecaptin M. After 3 days, blood was collected to obtain serum for biochemical tests, and mice were euthanized to remove organs (preserved in 10% formalin) for histopathological analysis.

[3] = 40 /kg i.v., at death within 2 h
[4] = subcutaneous, 5 mg/kg b.w., plasma

CC[C@H](C)CCCCC(=O)NCC(=O)N[C@H](CCN)C(=O)NCC(=O)N[C@H](CO)C(=O)N[C@H](Cc1c[nH]c2ccccc12)C(=O)N[C@@H](CO)C(=O)N[C@@H](CCN)C(=O)N[C@H](CCN)C(=O)N[C@H](C(=O)N[C@@H](CCC(=O)O)C(=O)N[C@H](C(=O)N[C@@H](C(=O)N[C@@H](CO)C(=O)O)[C@@H](C)CC)[C@@H](C)CC)[C@@H](C)CC [Tridecaptin M, tridecaptin M] (X1-G[dDab]G[dS][dW]S[Dab][dDab]IEI[d(aIle)]S-OH)
IC50 (CYP1A2): > 30 µM | inhibition at 25 min, 0.01 µM (CYP1A2; human, % inhibition CYP 1A2): < 0% | inhibition at 25 min, 0.03 µM (CYP1A2; human, % inhibition CYP 1A2): < 0% | inhibition at 25 min, 0.1 µM (CYP1A2; human, % inhibition CYP 1A2): < 0% | inhibition at 25 min, 0.3 µM (CYP1A2; human, % inhibition CYP 1A2): < 0% | inhibition at 25 min, 1 µM (CYP1A2; human, % inhibition CYP 1A2): < 0% | inhibition at 25 min, 3 µM (CYP1A2; human, % inhibition CYP 1A2): < 0% | inhibition at 25 min, 10 µM (CYP1A2; human, % inhibition CYP 1A2): < 0% | inhibition at 25 min, 30 µM (CYP1A2; human, % inhibition CYP 1A2): ≤ 0% | Mean current (hERG channel; 0.1 µM): 4.41E-10 A | Mean current (hERG channel; 0.3 µM): 4.66E-10 A | Mean current (hERG channel; 1 µM): 4.64E-10 A | Mean current (hERG channel; 3 µM): 4.58E-10 A | Mean current (hERG channel; 10 µM): 4.34E-10 A | Mean current (hERG channel; 30 µM): 4.68E-10 A | inhibition of the hERG channel (hERG channel; concentrations up to 30 µM (44.6 µg/mL)): no significant inhibition | inhibition at 0.1 µM (hERG channel; human, HEK293 cells expressing hERG, pH 7.4, 0.1 µM): -0.37% | inhibition at 0.3 µM (hERG channel; human, HEK293 cells expressing hERG, pH 7.4, 0.3 µM): -5.86% | inhibition at 1 µM (hERG channel; human, HEK293 cells expressing hERG, pH 7.4, 1 µM): -5.54% | inhibition at 3 µM (hERG channel; human, HEK293 cells expressing hERG, pH 7.4, 3 µM): -4.07% | inhibition at 10 µM (hERG channel; human, HEK293 cells expressing hERG, pH 7.4, 10 µM): 1.37% | inhibition at 30 µM (hERG channel; human, HEK293 cells expressing hERG, pH 7.4, 30 µM): -6.44% | Amylase (pooled serum) ([1]; 20 mg/kg i.v., 24 h): 3800 U/L | BUN (pooled serum) ([1]; 20 mg/kg i.v., 24 h): 96 mg% | CPK (pooled serum) ([1]; 20 mg/kg i.v., 24 h): 448 U/L | CPK_MB (pooled serum) ([1]; 20 mg/kg i.v., 24 h): 420 U/L | Glucose (pooled serum) ([1]; 20 mg/kg i.v., 24 h): 344 mg/dL | LDH (pooled serum) ([1]; 20 mg/kg i.v., 24 h): 2120 U/L | Lipase (pooled serum) ([1]; 20 mg/kg i.v., 24 h): 1016 U/L | SGOT (pooled serum) ([1]; 20 mg/kg i.v., 24 h): 244 Units/L | SGPT (pooled serum) ([1]; 20 mg/kg i.v., 24 h): 68 Units/L | outcome of i.v. administration ([1]; 25 mg/kg or less i.v.): no visible signs of toxicity or mortality | clinical signs ([1]; 30 mg/kg i.v.): abnormal motor behavior, including dragging of limbs | survival time post-administration ([1]; 30 mg/kg i.v.): 6 to 10 h | time to mortality ([1]; 40 mg/kg i.v.): ≤ 2 h | outcome of i.v. administration ([1]; 50 mg/kg i.v.): resulted in mortality | outcome of i.v. administration ([1]; 100 mg/kg i.v.): immediately lethal | Amylase (pooled serum) ([1]; 25 /kg i.v., 24 h): 5144 U/L | BUN (pooled serum) ([1]; 25 /kg i.v., 24 h): 112 mg% | CPK (pooled serum) ([1]; 25 /kg i.v., 24 h): 712 U/L | CPK_MB (pooled serum) ([1]; 25 /kg i.v., 24 h): 952 U/L | Glucose (pooled serum) ([1]; 25 /kg i.v., 24 h): 248 mg/dL | LDH (pooled serum) ([1]; 25 /kg i.v., 24 h): 3896 U/L | Lipase (pooled serum) ([1]; 25 /kg i.v., 24 h): 972 U/L | SGOT (pooled serum) ([1]; 25 /kg i.v., 24 h): 872^b Units/L | SGPT (pooled serum) ([1]; 25 /kg i.v., 24 h): 208 Units/L | Amylase (pooled serum) [1, 3]: 1560 U/L | BUN (pooled serum) [1, 3]: 24 mg% | CPK (pooled serum) [1, 3]: 24,472 U/L | CPK_MB (pooled serum) [1, 3]: 1408 U/L | Glucose (pooled serum) [1, 3]: 152 mg/dL | LDH (pooled serum) [1, 3]: 3280 U/L | Lipase (pooled serum) [1, 3]: 368 U/L | SGOT (pooled serum) [1, 3]: 784 Units/L | SGPT (pooled serum) [1, 3]: 88 Units/L | histopathology of liver, kidney, heart and brain vs control ([1]; i.v. administration): no significant morphological alterations | dose at which acute toxicity is seen ([1]; intravenous administration): ≥ 30 mg/kg | Cmax relative to the MIC value (intravenous, 5mg/kg b.w.): about 10 times | time plasma concentration maintained above MIC (4µg/mL) (intravenous, 5mg/kg b.w.): about 4 h | Cmax (intravenous, 5 mg/kg b.w., plasma, 5 mg/kg): 43200 ± 6020 ng/mL | CL [4]: 4.95 ± 0.24 mL/min/kg | Vss [4]: 2.63 ± 0.45 L/kg | T1/2 (subcutaneous, 5 mg/kg b.w., plasma, 5 mg/kg): 8.56 ± 1.60 h | half-life (in vitro; pH 7.4): > 2 h | remaining at 0.25 h (in vitro; pH 7.4): 86.4% | remaining at 0.5 h (in vitro; pH 7.4): 76.5% | remaining at 1 h (in vitro; pH 7.4): 70.1% | remaining at 2 h (in vitro; pH 7.4): 58.8% | microsomal CLint (in vitro; pH 7.4, CL, rat liver microsomes): < 11 µL/min/mg | SGPT (serum) ([2]; 600 mg/kg s.c., female mouse TF-2, day 3): 112 Units/L | mortality ([2]; single s.c. dose 100-600 mg/kg): No mortality was observed | histopathology of heart, kidney, liver, brain, spleen ([2]; single s.c. dose 100-600 mg/kg, vs vehicle control): No signs of toxicity or pathological changes | dose up to which safety is confirmed ([2]; subcutaneous administration): up to 600 mg/kg
